Measured values from ChEMBL document CHEMBL4622943, “Design, synthesis and biological evaluation of 2-methyl-(1,1'-biphenyl)-pyrimidine conjugates” (Bioorg Med Chem Lett, 2020).
The source made the active and inactive calls. No cut-off for these calls is given here.

Experiments:
HepG2 = assay: Inhibition of cell migration in human HepG2 cells incubated for 48 hrs by wound healing assay; type: functional, cell-based
A549 [1] = assay: Antiinvasive activity against human A549 cells at 0.6 uM after 24 hrs by crystal violet staining based transwell assay relative to control; type: functional
SK-OV-3 [2] = assay: Inhibition of cell migration in human SKOV3 cells incubated for 48 hrs by wound healing assay; type: functional, cell-based
HT-29 = assay: Inhibition of cell migration in human HT-29 cells incubated for 48 hrs by wound healing assay; type: functional, cell-based
A549 [3] = assay: Induction of apoptosis in human A549 cells assessed as live cells at 5 uM by FITC staining based flow cytometry (reference value: 96 to 96.6 %); type: functional
SK-OV-3 [4] = assay: Inhibition of cell migration in human SKOV3 cells at 0.6 uM incubated for 48 hrs by wound healing assay relative to control; type: functional; conditions: SK-OV-3, 48 h
[5] = Selectivity index, ratio of IC50 for human MRC5 cells to IC50 for human SKOV3 cells assessed as cell growth inhibition by CCK8 assay; type: toxicity; conditions: MRC5 cells versus SKOV3 cells, read-out: Ratio IC50
A549 [6] = assay: Induction of apoptosis in human A549 cells assessed as late apoptotic cells at 5 uM by FITC staining based flow cytometry (reference value: 2.12 to 2.33 %); type: functional
A549 [7] = assay: Inhibition of cell migration in human A549 cells at 0.6 uM incubated for 48 hrs by wound healing assay relative to control; type: functional; conditions: A549, 48 h
A549 [8] = assay: Induction of apoptosis in human A549 cells assessed as live cells at 10 uM by FITC staining based flow cytometry (reference value: 96 to 96.6 %); type: functional
A549 [9] = assay: Induction of apoptosis in human A549 cells assessed as early apoptotic cells at 5 uM by FITC staining based flow cytometry (reference value: 0.34 to 0.39 %); type: functional
MRC5 = assay: Cytotoxicity against human MRC5 cells assessed as cell growth inhibition by CCK8 assay; type: cell-based
A549 [10] = assay: Induction of apoptosis in human A549 cells assessed as late apoptotic cells at 10 uM by FITC staining based flow cytometry (reference value: 2.12 to 2.33 %); type: functional
A549 [11] = assay: Inhibition of cell migration in human A549 cells incubated for 48 hrs by wound healing assay; type: functional, cell-based
A549 [12] = assay: Induction of apoptosis in human A549 cells assessed as necrotic cells at 5 uM by FITC staining based flow cytometry (reference value: 0.78 to 1.49 %); type: functional
A549 [13] = assay: Induction of apoptosis in human A549 cells assessed as necrotic cells at 10 uM by FITC staining based flow cytometry (reference value: 0.78 to 1.49 %); type: functional
[14] = Selectivity index, ratio of IC50 for human MRC5 cells to IC50 for human A549 cells assessed as cell growth inhibition by CCK8 assay; type: toxicity; conditions: MRC5 cells versus A549 cells, read-out: Ratio IC50
[15] = Selectivity index, ratio of IC50 for human MRC5 cells to IC50 for human HT-29 cells assessed as cell growth inhibition by CCK8 assay; type: toxicity; conditions: MRC5 cells versus HT-29 cells, read-out: Ratio IC50
[16] = Selectivity index, ratio of IC50 for human MRC5 cells to IC50 for human HepG2 cells assessed as cell growth inhibition by CCK8 assay; type: toxicity; conditions: MRC5 cells versus HepG2 cells, read-out: Ratio IC50
A549 [17] = assay: Induction of apoptosis in human A549 cells assessed as early apoptotic cells at 10 uM by FITC staining based flow cytometry (reference value: 0.34 to 0.39 %); type: functional
MDA-MB-231 = assay: Antiproliferative activity against human MDA-MB-231 cells assessed as cell growth inhibition by CCK8 assay; type: functional, cell-based
A-375 = assay: Antiproliferative activity against human A375 cells assessed as cell growth inhibition by CCK8 assay; type: functional, cell-based
HCC827 = assay: Antiproliferative activity against human HCC827 cells assessed as cell growth inhibition by CCK8 assay; type: functional, cell-based
NCI-H1299 = assay: Antiproliferative activity against human H1299 cells assessed as cell growth inhibition by CCK8 assay; type: functional, cell-based
AGS = assay: Antiproliferative activity against human AGS cells assessed as cell growth inhibition by CCK8 assay; type: functional, cell-based
SK-OV-3 [18] = assay: Induction of apoptosis in human SKOV3 cells assessed as live cells at 5 uM by FITC staining based flow cytometry (reference value: 95.5 to 96 %); type: functional
SK-OV-3 [19] = assay: Induction of apoptosis in human SKOV3 cells assessed as necrotic cells at 5 uM by FITC staining based flow cytometry (reference value: 1.74 to 1.93 %); type: functional
SK-OV-3 [20] = assay: Induction of apoptosis in human SKOV3 cells assessed as early apoptotic cells at 5 uM by FITC staining based flow cytometry (reference value: 0.59 to 0.97 %); type: functional
[21] = target: Programmed cell death protein 1/Programmed cell death 1 ligand 1 (Homo sapiens, UniProt Q15116+Q9NZQ7); assay: Inhibition of PD1 (unknown origin)/PDL1 (unknown origin) protein-protein interaction by HTRF assay; type: protein-complex assay
Sequence of Programmed cell death protein 1/Programmed cell death 1 ligand 1 (Q15116 whole entry): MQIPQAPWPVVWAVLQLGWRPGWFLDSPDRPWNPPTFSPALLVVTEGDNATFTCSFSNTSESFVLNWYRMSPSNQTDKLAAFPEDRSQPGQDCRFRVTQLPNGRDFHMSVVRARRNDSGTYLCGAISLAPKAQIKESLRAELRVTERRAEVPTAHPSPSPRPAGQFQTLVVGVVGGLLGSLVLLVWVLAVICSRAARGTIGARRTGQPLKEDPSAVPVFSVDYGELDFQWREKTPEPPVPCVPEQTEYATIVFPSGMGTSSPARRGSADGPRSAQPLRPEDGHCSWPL
Sequence of Programmed cell death protein 1/Programmed cell death 1 ligand 1 (Q9NZQ7 whole entry): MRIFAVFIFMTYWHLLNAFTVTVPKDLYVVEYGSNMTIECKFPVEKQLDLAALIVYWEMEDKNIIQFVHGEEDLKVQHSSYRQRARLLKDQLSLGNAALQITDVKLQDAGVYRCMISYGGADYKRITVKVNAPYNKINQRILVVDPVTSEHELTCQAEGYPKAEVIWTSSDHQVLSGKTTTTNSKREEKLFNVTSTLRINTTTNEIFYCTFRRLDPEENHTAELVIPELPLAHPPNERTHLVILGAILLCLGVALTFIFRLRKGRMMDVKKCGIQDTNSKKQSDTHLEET

SK-OV-3 [22] = assay: Induction of apoptosis in human SKOV3 cells assessed as necrotic cells at 10 uM by FITC staining based flow cytometry (reference value: 1.74 to 1.93 %); type: functional
SK-OV-3 [23] = assay: Induction of apoptosis in human SKOV3 cells assessed as late apoptotic cells at 5 uM by FITC staining based flow cytometry (reference value: 2.14 to 2.83 %); type: functional
SK-OV-3 [24] = assay: Antiinvasive activity against human SKOV3 cells at 0.6 uM after 24 hrs by crystal violet staining based transwell assay relative to control; type: functional
SK-OV-3 [25] = assay: Induction of apoptosis in human SKOV3 cells assessed as early apoptotic cells at 10 uM by FITC staining based flow cytometry (reference value: 0.59 to 0.97 %); type: functional
SK-OV-3 [26] = assay: Induction of apoptosis in human SKOV3 cells assessed as live cells at 10 uM by FITC staining based flow cytometry (reference value: 95.5 to 96 %); type: functional
SK-OV-3 [27] = assay: Induction of apoptosis in human SKOV3 cells assessed as late apoptotic cells at 10 uM by FITC staining based flow cytometry (reference value: 2.14 to 2.83 %); type: functional

| Compound | inhibition (HepG2) | Activity (A549 [1]) | inhibition (SK-OV-3 [2]) | inhibition (HT-29) | Activity (A549 [3]) | inhibition at 0.6 µM (SK-OV-3 [4]) | selectivity ratio [5] | Activity (A549 [6]) | inhibition at 0.6 µM (A549 [7]) | Activity (A549 [8]) | IC50 (MRC5) | inhibition (A549 [11]) | selectivity ratio [14] | selectivity ratio [15] | selectivity ratio [16] | IC50 (MDA-MB-231) | IC50 (A-375) | IC50 (HCC827) | IC50 (NCI-H1299) | IC50 (AGS) | also measured |
| --- | --- | --- | --- | --- | --- | --- | --- | --- | --- | --- | --- | --- | --- | --- | --- | --- | --- | --- | --- | --- | --- |
| Cc1c(CNc2nc(NCCCN(C)C)cc(N3CCOCC3)n2)cccc1-c1ccccc1 | Active | 21.81% | Active | Active | 92.7% | 39.6% | 129 | 3.99% | 53.4% | 81.7% | 1050 µM | Active | 112 | 129 | 213 | – | – | – | – | – | Activity (A549 [9]): 1.28%; Activity (A549 [10]): 18.2%; Activity (A549 [12]): 2.05%; Activity (A549 [13]): 3.76%; Activity (A549 [17]): 4.42% |
| Cc1c(CNc2nc(NCCCN3CCCC3)cc(N3CCOCC3)n2)cccc1-c1ccccc1 | Active | – | Active | Active | – | – | 139 | – | – | – | 1050 µM | Active | 103 | 139 | 198 | 6.75 µM | 7 µM | 7.28 µM | 8.1 µM | 4.52 µM | – |
| CCN(CC)CCCNc1cc(N2CCNCC2)nc(NCc2cccc(-c3ccccc3)c2C)n1 | Active | 70.23% | Active | Active | 87.1% | 68.6% | 278 | 6.33% | 42.4% | 59.6% | 579 µM | Active | 147 | 278 | 82 | 4.88 µM | 4.03 µM | 5.27 µM | 6.74 µM | 3.11 µM | Activity (SK-OV-3 [18]): 87.8%; Activity (SK-OV-3 [19]): 3.16%; Activity (SK-OV-3 [20]): 5%; Activity (A549 [9]): 4.3%; Activity (A549 [10]): 14.6%; Activity (A549 [12]): 2.24%; Activity (A549 [13]): 8.19%; IC50 [21]: 5.15 µM; Activity (SK-OV-3 [22]): 25.7%; Activity (SK-OV-3 [23]): 4.08%; Activity (SK-OV-3 [24]): 66.68%; Activity (SK-OV-3 [25]): 11.5%; Activity (A549 [17]): 17.7%; Activity (SK-OV-3 [26]): 54.5%; Activity (SK-OV-3 [27]): 8.26% |
| CCN(CC)CCCNc1cc(N2CCOCC2)nc(NCc2cccc(-c3ccccc3)c2C)n1 | Active | – | Active | Active | – | – | 119 | – | – | – | 924 µM | Active | 114 | 119 | 165 | – | – | – | – | – | – |
| Cc1c(CNc2nc(NCCCN3CCOCC3)cc(N3CCOCC3)n2)cccc1-c1ccccc1 | – | – | – | – | – | – | – | – | – | – | – | – | – | – | – | 6.75 µM | 7 µM | 7.28 µM | 8.1 µM | 4.52 µM | – |
| Cc1c(CNc2nc(NCCCN3CCCCC3)cc(N3CCOCC3)n2)cccc1-c1ccccc1 | Active | – | Active | Active | – | – | 267 | – | – | – | 879 µM | Active | 185 | 267 | 295 | – | – | – | – | – | Activity (SK-OV-3 [18]): 95%; Activity (SK-OV-3 [19]): 1.87%; Activity (SK-OV-3 [20]): 0.85%; Activity (SK-OV-3 [22]): 2.18%; Activity (SK-OV-3 [23]): 2.31%; Activity (SK-OV-3 [24]): 60%; Activity (SK-OV-3 [25]): 1.49%; Activity (SK-OV-3 [26]): 91.3%; Activity (SK-OV-3 [27]): 4.98% |
